The record followed here is patent publication US20260166039A1 (SCHRÖDINGER, INC., priority 2022, published 2026).

One test concerns the target T1, Wee1 kinase domain (Homo sapiens, UniProt P30291).
T1 construct: Wee1 kinase domain was purchased from Carna (catalog #05-177); purchased Carna 05-177
Kind of test: Wee1 Kinase Biochemical Assay (ADP-Glo). To be noted: 15 uM ATP. In outline:
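Compounds tested against 1 nM Wee1 kinase domain in Tris buffer containing 20 mM MgCl2, BSA and 2 mM DTT, with 15 uM ATP and poly(Lys,Tyr) substrate for 4 h at 25 °C. Luminescent ADP detection gave percent inhibition, normalized to DMSO and saturating inhibitor.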

Test [1] relates to phosphorylation of Cdc2 Y15 (Wee1 substrate) in A427 cells. The test can be described thus: Phosphorylated Cdc2 MSD Electrochemiluminescence Assay. In kind it is cell-based. The note with it: Homo sapiens. The method in brief: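 Read-out: percent residual phospho-Cdc2 Y15 relative to DMSO and positive-control Wee1 inhibitor, measured by MSD electrochemiluminescence capture/detection antibody assay in cell lysates. A427 cells received duplicate 3-fold compound dilution series 20 h post-seeding, with 6 h total incubation at 37 °C.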

The mark [2] stands for this setting: class symbols, 1 nM Wee1 enzyme, 4 hours at 25° C.
Where [3] appears, read: A-427, class symbols, read-out: A427 pCDC2 MSD IC50.

The structures appear in SMILES notation. Where two headings read alike, the source gives them in different places.

T1 sequence (P30291 299-569 limits assumed): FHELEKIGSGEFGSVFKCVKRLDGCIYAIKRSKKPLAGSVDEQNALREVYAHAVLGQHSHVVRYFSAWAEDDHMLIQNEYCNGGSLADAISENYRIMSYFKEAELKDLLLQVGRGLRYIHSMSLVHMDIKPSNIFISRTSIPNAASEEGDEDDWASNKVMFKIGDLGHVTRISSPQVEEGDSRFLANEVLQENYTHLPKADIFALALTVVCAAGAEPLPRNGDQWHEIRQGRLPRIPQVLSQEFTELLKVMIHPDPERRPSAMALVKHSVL

In the case of `CN=[S@@](C)(=O)c1cccc(N2c3nc(Nc4ccc(N5CCN(C)CC5)cc4)ncc3[C@@]3(C)COC(C)(C)C[C@@H]23)n1` (single isomer, unassigned) [Example 765], the IC50 was under 0.01 µM against Wee1 kinase domain (setting [2]) and 0.1 to 1 µM in test [1] (setting [3]).

`CN1CCN(c2ccc(Nc3ncc4c(n3)N(c3cccc(N5C(=O)OCC5(C)C)n3)[C@@H]3CC(C)(C)OC[C@]43C)cc2)CC1` (single isomer, unassigned) [Example 728]: the figures for the IC50 (against Wee1 kinase domain (setting [2]); in test [1] (setting [3])) were under 0.01 µM and 0.1 to 1 µM, respectively.

As for `Cc1cc(Nc2ncc3c(n2)N(c2cccc(N=S(C)(C)=O)n2)[C@@H]2CC(C)(C)OC[C@]32C)ccc1[C@H]1COCCN1` (single isomer, unassigned) [Example 120], the IC50 against Wee1 kinase domain (Wee1 kinase domain, ADP-Glo) is under 0.01 µM; in test [1] (A-427, pCDC2 MSD), under 0.1 µM.

Turning to `CN1CCC(c2ccc(Nc3ncc4c(n3)N(c3cccc(S(C)(=O)=O)n3)[C@@H]3CC(C)(C)OC[C@]43C)cc2)CC1` (single isomer, unassigned) [Example 757], the figures for the IC50 (against Wee1 kinase domain (setting [2]); in test [1] (setting [3])) were under 0.01 µM and 0.1 to 1 µM, respectively.

`CN(C)Cc1cccc(N2c3nc(Nc4ccc(C(C)(C)C(=O)O)cc4)ncc3[C@@]3(C)COC(C)(C)C[C@@H]23)n1` [Example 611]: the concentration for half-maximal inhibition (IC50) is under 0.01 µM against Wee1 kinase domain (setting [2]) and 1 to 10 µM in test [1] (setting [3]).

Regarding `Cc1cc(Nc2ncc3c(n2)N(c2cccc(C(C)(C)O)n2)[C@@H]2CC(C)(C)OC[C@]32C)ccc1N1C[C@@H]2C[C@H]1CN2C` (single isomer, unassigned) [Example 429], the IC50 is under 0.01 µM against Wee1 kinase domain (setting [2]) and 0.1 to 1 µM in test [1] (setting [3]).

Take `CN=S1(=O)CCN(c2ccc(Nc3ncc4c(n3)N(c3cccc(CNC)n3)[C@@H]3CC(C)(C)OC[C@]43C)cc2)CC1` (single isomer, unassigned) [Example 65]: the IC50 was under 0.01 µM on Wee1 kinase domain (Wee1 kinase domain, ADP-Glo) and 0.1 to 1 µM in test [1] (A-427, pCDC2 MSD).

Consider `Cc1cc(Nc2ncc3c(n2)N(c2cccc(N4C(=O)OC[C@@H]4C)n2)[C@@H]2CC(C)(C)OC[C@]32C)ccc1O[C@H]1CCN(C)C1` (single isomer, unassigned) [Example 345], for which the IC50 is under 0.01 µM at Wee1 kinase domain (Wee1 kinase domain, ADP-Glo) and 0.1 to 1 µM in test [1] (A-427, pCDC2 MSD).

For `C[C@H]1COC(=O)N1c1cccc(N2c3nc(Nc4cnn(C5CCN(C)CC5)c4)ncc3[C@@]3(C)COC(C)(C)C[C@@H]23)n1` (single isomer, unassigned) [Example 243], the IC50 on Wee1 kinase domain (Wee1 kinase domain, ADP-Glo) is under 0.01 µM; in test [1] (A-427, pCDC2 MSD), under 0.1 µM.

On to `C[C@H]1COC(=O)N1c1cccc(N2c3nc(Nc4ccc([C@@H]5CCNC5)nc4)ncc3[C@@]3(C)COC(C)(C)C[C@@H]23)n1` (single isomer, unassigned) [Example 257], for which the IC50 on Wee1 kinase domain (Wee1 kinase domain, ADP-Glo) is under 0.01 µM; in test [1] (A-427, pCDC2 MSD), 0.1 to 1 µM.

For the compound `CNCc1cccc(N2c3nc(Nc4ccc(N5C(=O)CC[C@H]5C)cc4)ncc3[C@@]3(C)COC(C)(C)C[C@@H]23)n1` (single isomer, unassigned) [Example 30], the IC50 was under 0.01 µM at Wee1 kinase domain (Wee1 kinase domain, ADP-Glo) and 0.1 to 1 µM in test [1] (A-427, pCDC2 MSD).

As for `CC1(C)C[C@H]2N(c3cccc(N4CCCC4=O)n3)c3nc(Nc4ccc(O[C@H]5CCNC5)cc4)ncc3[C@@]2(C)CO1` [Example 620, 1-(6-((4bR,8aR)-4b,7,7-trimethyl-2-((4-(((S)-pyrrolidin-3-yl)oxy)phenyl)amino)-4b,7,8,8a-tetrahydropyrano[3′,4′:4,5]pyrrolo[2,3-d]pyrimidin-9(5H)-yl)pyridin-2-yl)pyrrolidin-2-one], the IC50 at Wee1 kinase domain (setting [2]) is under 0.01 µM; in test [1] (setting [3]), under 0.1 µM.

`CNCc1cccc(N2c3nc(Nc4ccc([C@@H]5CCC(=O)N5C)cc4)ncc3[C@@]3(C)COC(C)(C)C[C@@H]23)n1` (single isomer, unassigned) [Example 52]: the IC50 against Wee1 kinase domain (Wee1 kinase domain, ADP-Glo) is under 0.01 µM; in test [1] (A-427, pCDC2 MSD) it was under 0.1 µM.

As to `CN1CC[C@@H](c2ccc(Nc3ncc4c(n3)N(c3cccc(N5CCOC5=O)n3)[C@@H]3CC(C)(C)OC[C@]43C)cc2)C1` (single isomer, unassigned) [Example 605], the values for the IC50 (on Wee1 kinase domain (setting [2]); in test [1] (setting [3])) were under 0.01 µM and 0.1 to 1 µM, respectively.

Consider `C[C@H]1COC(=O)N1c1cccc(N2c3nc(Nc4ccn(C5CCN(C)CC5)c(=O)c4)ncc3[C@@]3(C)COC(C)(C)C[C@@H]23)n1` (single isomer, unassigned) [Example 273], for which the IC50 against Wee1 kinase domain (Wee1 kinase domain, ADP-Glo) is under 0.01 µM; in test [1] (A-427, pCDC2 MSD) it was 0.1 to 1 µM.

Take `CN1CCC(c2cncc(Nc3ncc4c(n3)N(c3cccc(N=S(C)(C)=O)n3)[C@@H]3CC(C)(C)OC[C@]43C)c2)CC1` (single isomer, unassigned) [Example 485]: the IC50 on Wee1 kinase domain (setting [2]) was under 0.01 µM; in test [1] (setting [3]) it was 0.1 to 1 µM.

For `C[C@H]1COC(=O)N1c1cccc(N2c3nc(Nc4ccn(C5CCOCC5)c(=O)c4)ncc3[C@@]3(C)COC(C)(C)C[C@@H]23)n1` (single isomer, unassigned) [Example 781], the IC50 is under 0.01 µM at Wee1 kinase domain (setting [2]) and 0.1 to 1 µM in test [1] (setting [3]).

For the compound `CN[C@H]1CCc2ccc(N3c4nc(Nc5ccc(N6CCOCC6)cc5)ncc4C4(C)COC(C)(C)CC34)nc21` (stereo in doubt) [Example 551, (4bR,8aR)-4b,7,7-trimethyl-9-((S)-7-(methylamino)-6,7-dihydro-5H-cyclopenta[b]pyridin-2-yl)-N-(4-morpholinophenyl)-4b,5,7,8,8a,9-hexahydropyrano[3′,4′:4,5]pyrrolo[2,3-d]pyrimidin-2-amine], the IC50 against Wee1 kinase domain (setting [2]) is under 0.01 µM; in test [1] (setting [3]), under 0.1 µM.

Take `CNCc1cccc(N2c3nc(Nc4ccc(-n5ccnc5)nc4)ncc3[C@@]3(C)COC(C)(C)C[C@@H]23)n1` (single isomer, unassigned) [Example 468]: the IC50 is under 0.01 µM at Wee1 kinase domain (setting [2]) and 1 to 10 µM in test [1] (setting [3]).

Consider `CN1CCN(c2ccc(Nc3ncc4c(n3)N(c3cccc(C(C)(C)O)n3)[C@@H]3CC(C)(C)OC[C@]43C)cc2)CC1` (single isomer, unassigned) [Example 4], for which the IC50 is under 0.01 µM against Wee1 kinase domain (Wee1 kinase domain, ADP-Glo) and 0.1 to 1 µM in test [1] (A-427, pCDC2 MSD).

Turning to `C[C@@H]1CN(c2ccc(Nc3ncc4c(n3)N(c3cccc(N=S(C)(C)=O)n3)[C@@H]3CC(C)(C)OC[C@]43C)cc2)CCN1C` (single isomer, unassigned) [Example 499], the IC50 at Wee1 kinase domain (setting [2]) is under 0.01 µM; in test [1] (setting [3]), under 0.1 µM.

As to `CC1(C)C[C@H]2N(c3cccc(N=S(C)(C)=O)n3)c3nc(Nc4ccn(C(F)F)c(=O)c4)ncc3[C@@]2(C)CO1` (single isomer, unassigned) [Example 374], the IC50 against Wee1 kinase domain (Wee1 kinase domain, ADP-Glo) is under 0.01 µM; in test [1] (A-427, pCDC2 MSD), 0.1 to 1 µM.

As to `C[C@H]1CCC(=O)N1c1cccc(N2c3nc(Nc4ccc(N5CC6(CN(C)C6)C5)cc4)ncc3[C@@]3(C)COCC[C@@H]23)n1` (single isomer, unassigned) [Example 776], the IC50 is under 0.01 µM against Wee1 kinase domain (setting [2]) and 0.1 to 1 µM in test [1] (setting [3]).

Turning to `CN[C@H](c1cccc(N2c3nc(Nc4ccc(N5CCN(C)CC5)cc4)ncc3[C@@]3(C)COC(C)(C)C[C@@H]23)n1)C(F)(F)F` [Example 755, (4bR,8aR)-4b,7,7-trimethyl-N-(4-(4-methylpiperazin-1-yl)phenyl)-9-(6-((R)-2,2,2-trifluoro-1-(methylamino)ethyl)pyridin-2-yl)-4b,5,7,8,8a,9-hexahydropyrano[3′,4′:4,5]pyrrolo[2,3-d]pyrimidin-2-amine], the IC50 was under 0.01 µM at Wee1 kinase domain (setting [2]) and 0.1 to 1 µM in test [1] (setting [3]).

Regarding `Cc1cc(Nc2ncc3c(n2)N(c2cccc(N4CCOC4=O)n2)[C@@H]2CC(C)(C)OC[C@]32C)ccc1N1C[C@H]2C[C@@H]1CN2C` [Example 660, 3-(6-((4bR,8aR)-4b,7,7-trimethyl-2-((3-methyl-4-((1R,4R)-5-methyl-2,5-diazabicyclo[2.2.1]heptan-2-yl)phenyl)amino)-4b,7,8,8a-tetrahydropyrano[3′,4′:4,5]pyrrolo[2,3-d]pyrimidin-9(5H)-yl)pyridin-2-yl)oxazolidin-2-one], the values for the IC50 (against Wee1 kinase domain (setting [2]); in test [1] (setting [3])) were under 0.01 µM and 0.1 to 1 µM, respectively.

As to `CNCc1cccc(N2c3nc(Nc4ccc([C@@]5(C)CCN(C)C5=O)cc4)ncc3[C@@]3(C)COC(C)(C)C[C@@H]23)n1` (single isomer, unassigned) [Example 80], the IC50 against Wee1 kinase domain (Wee1 kinase domain, ADP-Glo) was under 0.01 µM; in test [1] (A-427, pCDC2 MSD) it was 0.1 to 1 µM.

`C[C@H]1CN(c2cccc(N3c4nc(Nc5ccc(N6CCN(C)CC6)cc5)ncc4[C@@]4(C)COC(C)(C)C[C@@H]34)n2)C(=O)O1` (single isomer, unassigned) [Example 599]: the IC50 against Wee1 kinase domain (setting [2]) was under 0.01 µM; in test [1] (setting [3]) it was 0.1 to 1 µM.

On to `Cn1ccc(Nc2ncc3c(n2)N(c2cccc(P(C)(C)=O)n2)[C@@H]2CC(C)(C)OC[C@]32C)cc1=O` (single isomer, unassigned) [Example 779], for which the IC50 was under 0.01 µM at Wee1 kinase domain (setting [2]) and under 0.1 µM in test [1] (setting [3]).

On to `CN1CC[C@H](Oc2ccc(Nc3ncc4c(n3)N(c3cccc(N=S(C)(C)=O)n3)[C@@H]3CC(C)(C)OC[C@]43C)cc2)C1` (single isomer, unassigned) [Example 157], for which the IC50 against Wee1 kinase domain (Wee1 kinase domain, ADP-Glo) is under 0.01 µM; in test [1] (A-427, pCDC2 MSD) it was under 0.1 µM.

Turning to `Cc1cc(Nc2ncc3c(n2)N(c2cccc(N4CCCC4=O)n2)[C@@H]2CC(C)(C)OC[C@]32C)ccc1N1C[C@H]2C[C@@H]1CN2C` [Example 658, 1-(6-((4bR,8aR)-4b,7,7-trimethyl-2-((3-methyl-4-((1R,4R)-5-methyl-2,5-diazabicyclo[2.2.1]heptan-2-yl)phenyl)amino)-4b,7,8,8a-tetrahydropyrano[3′,4′:4,5]pyrrolo[2,3-d]pyrimidin-9(5H)-yl)pyridin-2-yl)pyrrolidin-2-one], the figures for the IC50 (on Wee1 kinase domain (setting [2]); in test [1] (setting [3])) were under 0.01 µM and 0.1 to 1 µM, respectively.

As a reminder, the IC50 is the concentration that gives 50% inhibition.
